# Experimental data as given in patent US20140030201A1, “A SKIN LIGHTENING COMPOSITION” (priority 2010, published 2014).
# Values joined by “and” are separate entries in the source; they are usually repeats but may differ in a detail not shown here. Equal entries are not always repeated. Where two headings read alike, the source gives them in different places.
# Assays:
# [1] = tested on: B16 F10 cells (mouse melanoma cell line); details: 3 days; for Average μg melanin/cell (4 tests): media control 0.00030445, DMSO control 0.00028774; for % vehicle control (melanin per cell): media control 100, DMSO control 94.51056836
# Protocol: B16 F10 cells (mouse melanoma cell line) were obtained from ATCC and grown in Lonza Biowhittaker BE12-662F media. Trypsin in ethylenediaminetetraacetic acid (EDTA) (Sigma T3924) and Dulbecco's Phosphate Buffered Saline (DPBS) (Sigma D8537) were used to split the cells. Plates were set up at a concentration of 2.5×10^4 cells per well in 48 well plates in Phenol Red free media (Sigma D1145).
# After overnight incubation, media was removed and media with sulforaphane (available from Sigma-Aldrich Company Limited as at least 95% L-sulforaphane) in DMSO and ketoconazole in DMSO solutions were added. 500 μl of the media and solutions were added to 4 wells of a 48 well plate and the plates incubated at 37° C. for a further 3 days. Thereafter the melanin concentration and cell numbers were measured.
# Melanin concentration was measured by making up standards each day and pipetting 100 μl of each standard in duplicate onto Greiner plates. For the blank plate Phenol Red free media was used. 100 μl from each well was also pipetted in duplicate onto Greiner plates and the plates read on a Dynex plate reader at 450 nm.
# Cell numbers were measured by washing the wells twice with phosphated buffer solution (PBS). Then 1 ml of trypsin EDTA diluted in PBS at 1:10 v/v was added to each well and the wells observed for cell detachment. All media from each well was then collected the media assayed by adding 100 μl of the media to 9.9 ml of Coulter Isoton II diluent. Cell numbers were assessed using the Z1 Coulter Particle Counter.
# B16 melanoma cells = details: cited from earlier work
# MelanoDerm™ cultures = assay: Histological analysis of MelanoDerm cultures (Masson-Fontana staining, MART-1 immuno-staining); details: 1 μM, 14 days, versus DMSO control
# B16 mouse melanoma cells = assay: Melanogenesis in B16 monolayer cultures (melanin normalised to total protein); assay type: cell-based; details: for Normalised melanin: 72 hours; for Inhibition of melanin production (in words): B16 monolayer cultures
# Protocol: B16 mouse melanoma cells were cultured in Eagle's minimal essential medium (EMEM) supplemented with 10% foetal calf serum (FCS) and 2 mM L-glutamine at 37° C., 5% CO2 in T175 tissue culture flasks and were sub-cultured twice weekly using trypsin in EDTA. For assay, 25 000 cells per well in 500 μl volume were seeded to a 48 well plate and adhered overnight. The following morning standard culture media was replaced by EMEM, 10% FCS, 4 mM L-glutamine (500 μl) and test actives added. Cells were then incubated for 72 hours. At 72 after which the supernatants were removed and analysed for melanin content by spectrophometry at 450 nm against a reference standard curve. The B16 cell monolayer was dissolved in Triton™/PBS at 4° C. for 20 minutes, centrifuged at 13 000 rpm for 5 minutes at 4° C. and analysed for total protein content using a standard bicinchoninic acid assay (BCA) assay against a reference standard curve. Melanin results were normalised to total protein.
# Each test active was applied in DMSO to n=3 cultures.
# [2] = In-vitro delivery of ketoconazole into human skin (diffusion cells, tape stripping); assay type: in vitro ADME
# Protocol: This study quantified the in-vitro human skin penetration after application of a cream formulation containing 2% (w/w) ketoconazole (Daktarin™ Gold). Eight diffusion cells were prepared (using female abdominal skin from three donors) plus three undosed control cells (for assay validation purposes). Epidermal membranes were used and integrity assessed by measuring electrical resistance. Permeation of active was measured over 24 hours following application of a target 5 mg/cm2 dose. Suitable liquid chromatography analytical assays were developed, with active peaks separated from formulation, skin and tape strip derived peaks.
# Distribution within the skin at 24 hours was determined by measuring the levels of active within the stratum corneum (tape strips) and the epidermis plus any remaining lower stratum corneum (following tape stripping). The skin was wiped prior to tape stripping to remove active remaining at the surface. Levels in the donor chamber sealing grease and on the donor chambers were also measured (donor chamber wash).
# [3] = tested on: MelanoDerm™ cultures (pigmented 3D-Living Skin Equivalent model); assay: Melanogenesis in MelanoDerm cultures (extracted melanin normalised to protein)
# [4] = tested on: normal human melanocytes (NHM); assay: Growth and morphology of normal human melanocytes in monolayer culture (light microscopy); assay type: cell-based; details: 1 μM
# Protocol: Primary human melanocytes were obtained from Invitrogen Cascade Biologics (HEMn-DP) and grown in Cascade melanocyte media (M-254CF-500+human melanocyte growth supplement (HMGS) supplement containing phorbol myristate acetate (PMA)) according to the manufacturer's instructions. Once established, cultures were routinely grown in T175 tissue culture flasks and could generally be passaged for use up to six (P6) or seven (P7) times. Once the cells reached about 70% confluence they were treated with trypsin, spun down and re-suspended in an appropriate volume of media ready for plating out. Cells seeded at 2×10^5 cells per well in a 6-well plate and incubated in 2 ml medium per well. Cells were allowed 16 hours to settle on the cover-slips before addition of treatments. Cells were treated for 5 days with DMSO vehicle or test actives dissolved in DMSO and light microscope images captured.
# NHMs grown in monolayer cultures were treated with 1 μM ketoconazole for 5 days and assessed by light microscopy.
# [5] = cream with 2% (w/w) ketoconazole (Daktarin Gold), 5 mg/cm2, 24 hours, n = 8
# [6] = stratum corneum tape strips, cream with 2% (w/w) ketoconazole, 5 mg/cm2, 24 hours, n = 8
# [7] = 20 μM, individual cultures, second DMSO control 0.187, 0.188, 0.172
smiles,measurement,setting,value
"C[S+]([O-])CCCCN=C=S [L-sulforaphane, sulforaphane]",Average μg melanin/cell (4 tests),[1]; 10 μM,0.0002645 μg melanin/cell
same,% vehicle control (melanin per cell),[1]; 10 μM,86.89 % vehicle control
Clc1ccc(COC(Cn2ccnc2)c2ccc(Cl)cc2Cl)c(Cl)c1 (centres unmarked) [miconazole],Cellular viability,B16 melanoma cells; accompanying the melanin decrease,decreased cellular viability
same,Melanin content,B16 melanoma cells; compared with untreated cells,dose dependently decreased
same,Tyrosinase activity,B16 melanoma cells; compared with untreated cells,dose dependently decreased
CC(=O)N1CCN(c2ccc(OC[C@H]3CO[C@](Cn4ccnc4)(c4ccc(Cl)cc4Cl)O3)cc2)CC1 (racemic) [ketoconazole],"Melanin content of the basal melanocytes, Masson-Fontana staining",MelanoDerm™ cultures; FIG. 1,marked effect on the melanin content of the basal melanocytes
same,"Presence of melanocytes, MART-1 immuno-staining",MelanoDerm™ cultures; FIG. 2,not due to the elimination of melanocytes
same,Normalised melanin,"B16 mouse melanoma cells; 5 μM, n=3 cultures, first DMSO control 0.186 ± 0.021",0.173 ± 0.032 μg/mg protein
same,Normalised melanin,"B16 mouse melanoma cells; 20 μM, n=3 cultures, first DMSO control 0.186 ± 0.021",0.004 ± 0.001 μg/mg protein
same,Normalised melanin,"B16 mouse melanoma cells; 50 μM, n=3 cultures, first DMSO control 0.186 ± 0.021",0.007 ± 0.003 μg/mg protein
same,Inhibition of melanin production (in words),B16 mouse melanoma cells; at 1 μM as printed,very effectively inhibits melanin production
same,"Ketoconazole (% recovered), Donor chamber",[2]; [5],4.00 ± 1.26 % recovered
same,"Ketoconazole (% recovered), Overall recovery",[2]; [5],99.4 ± 1.2 % recovered
same,"Ketoconazole (% recovered), Permeation chamber",[2]; [5],3.49 ± 0.26 % recovered
same,"Ketoconazole (% recovered), Surface of skin",[2]; [5],83.6 ± 2.4 % recovered
same,Delivery into human skin (in words),"[2]; cream with 2% (w/w) ketoconazole, 24 hours",low but adequate delivery into human skin
same,"Ketoconazole (% recovered), Epidermis","[2]; includes any stratum corneum remaining after tape stripping, cream with 2% (w/w) ketoconazole, 5 mg/cm2, 24 hours, n = 8",2.02 ± 0.74 % recovered
same,"Ketoconazole (% recovered), Strip 1","[2]; stratum corneum tape strip, cream with 2% (w/w) ketoconazole, 5 mg/cm2, 24 hours, n = 8",4.92 ± 2.03 % recovered
same,"Ketoconazole (% recovered), Strips 2-3",[2]; [6],0.858 ± 0.255 % recovered
same,"Ketoconazole (% recovered), Strips 4-6",[2]; [6],0.318 ± 0.062 % recovered
same,"Ketoconazole (% recovered), Strips 7-10",[2]; [6],0.192 ± 0.046 % recovered
same,Effect on viability of epidermal cultures,[3]; 1 μM,no detectable effect on the viability
same,Normalised melanin,"[3]; 1 μM, 14 days, individual cultures, DMSO control 74.560, 103.845, 90.333",58.573 μg/mg protein and 59.276 μg/mg protein and 57.292 μg/mg protein
same,Levels of extractable melanin (in words),"[3]; 1 μM, 14 days, versus DMSO control",consistently reduced the levels of extractable melanin
same,Inhibition of melanin production (in words),"[3]; MelanoDerm cultures, at 1 μM",very effectively inhibits melanin production
same,Effect on viability of monolayer human melanocytes,[4],no detectable effect on the viability
same,Effect on NHM morphology or proliferation,"[4]; 5 days, light microscopy, FIG. 3",no evidence that treatment had an adverse effect on NHM morphology or proliferation
same,Proportion of bipolar cells (normal cells),"[4]; 5 days, versus control, FIG. 3",practically identical to the control
same,Average μg melanin/cell (4 tests),[1]; 1 μM,0.0002916 μg melanin/cell
same,% vehicle control (melanin per cell),[1]; 1 μM,95.76 % vehicle control
c1cocn1 [oxazole],Normalised melanin,B16 mouse melanoma cells; [7],0.217 μg/mg protein and 0.210 μg/mg protein and 0.185 μg/mg protein
same,Inhibition of melanin production (in words),B16 mouse melanoma cells; other azoles,did not effectively inhibit melanin production
c1c[nH]cn1 [imidazole],Normalised melanin,B16 mouse melanoma cells; [7],0.180 μg/mg protein and 0.231 μg/mg protein and 0.240 μg/mg protein
same,Inhibition of melanin production (in words),B16 mouse melanoma cells; other azoles,did not effectively inhibit melanin production
c1cscn1 [thiazole],Normalised melanin,B16 mouse melanoma cells; [7],0.228 μg/mg protein and 0.255 μg/mg protein and 0.236 μg/mg protein
same,Inhibition of melanin production (in words),B16 mouse melanoma cells; other azoles,did not effectively inhibit melanin production
"OC(Cn1cncn1)(Cn1cncn1)c1ccc(F)cc1F [flucoazole, fluconazole]",Normalised melanin,B16 mouse melanoma cells; [7],0.232 μg/mg protein and 0.214 μg/mg protein and 0.229 μg/mg protein
same,Inhibition of melanin production (in words),B16 mouse melanoma cells; other azoles,did not effectively inhibit melanin production
